Measured values taken from patent US20210228545A1, “METHODS OF TREATING CONDITIONS RELATED TO THE S1P1 RECEPTOR” (Arena Pharmaceuticals, Inc., priority 2018, published 2021).
pIC50: −log10 of the molar value. “Also recorded” adds a separate entry of the source.

Legend:
[1] = target: CYP1A2 (Homo sapiens, UniProt P05177); test: Direct inhibition of CYP activity in human liver microsomes; assay type: in vitro ADME; settings: up to 10 μM
Description: (§1) Known metabolism-dependent and/or direct inhibitors of CYP and UGT enzymes were included as positive controls, as applicable.

[2] = target: T1, CYP2B6 (Homo sapiens, UniProt P20813); test: as above; assay type: in vitro ADME; settings: up to 10 μM
T1 construct: human liver microsomes from a pool of 200 individuals; from tissue; host or cells: human liver microsomes, pool of 200 individuals
T1 sequence (P20813 whole entry): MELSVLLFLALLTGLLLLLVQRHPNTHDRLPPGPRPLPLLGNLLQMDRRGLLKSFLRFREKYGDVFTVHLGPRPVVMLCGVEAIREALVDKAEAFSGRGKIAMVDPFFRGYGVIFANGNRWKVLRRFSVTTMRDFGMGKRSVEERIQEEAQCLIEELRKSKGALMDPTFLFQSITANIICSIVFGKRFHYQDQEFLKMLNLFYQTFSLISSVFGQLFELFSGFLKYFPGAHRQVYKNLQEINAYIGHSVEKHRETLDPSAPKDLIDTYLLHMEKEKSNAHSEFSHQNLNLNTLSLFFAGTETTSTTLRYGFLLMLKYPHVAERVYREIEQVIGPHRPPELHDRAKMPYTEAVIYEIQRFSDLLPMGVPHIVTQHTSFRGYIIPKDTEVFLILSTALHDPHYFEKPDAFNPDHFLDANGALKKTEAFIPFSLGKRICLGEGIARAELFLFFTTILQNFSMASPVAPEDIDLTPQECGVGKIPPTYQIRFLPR
Description: as §1

[3] = target: T2, CYP2C19 (Homo sapiens, UniProt P33261); test: as above; assay type: in vitro ADME; settings: up to 10 μM
T2 construct: human liver microsomes from a pool of 200 individuals; from tissue; host or cells: human liver microsomes, pool of 200 individuals
T2 sequence (P33261 whole entry): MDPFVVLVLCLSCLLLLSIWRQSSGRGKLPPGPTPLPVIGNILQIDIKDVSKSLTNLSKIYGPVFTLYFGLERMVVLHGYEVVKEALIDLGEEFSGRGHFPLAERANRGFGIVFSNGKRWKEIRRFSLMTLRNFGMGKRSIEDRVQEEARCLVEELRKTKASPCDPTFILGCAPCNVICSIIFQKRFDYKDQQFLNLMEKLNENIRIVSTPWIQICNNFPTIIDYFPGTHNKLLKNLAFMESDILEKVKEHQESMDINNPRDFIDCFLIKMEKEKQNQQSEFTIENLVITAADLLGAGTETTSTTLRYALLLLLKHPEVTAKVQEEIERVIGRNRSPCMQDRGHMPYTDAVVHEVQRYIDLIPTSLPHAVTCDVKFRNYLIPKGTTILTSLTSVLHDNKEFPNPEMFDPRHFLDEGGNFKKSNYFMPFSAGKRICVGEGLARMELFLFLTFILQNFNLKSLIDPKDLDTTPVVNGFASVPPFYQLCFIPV
Description: as §1

[4] = target: T3, CYP2C8 (Homo sapiens, UniProt P10632); test: as above; assay type: in vitro ADME
T3 construct: human liver microsomes from a pool of 200 individuals; from tissue; host or cells: human liver microsomes, pool of 200 individuals
T3 sequence (P10632 1-490): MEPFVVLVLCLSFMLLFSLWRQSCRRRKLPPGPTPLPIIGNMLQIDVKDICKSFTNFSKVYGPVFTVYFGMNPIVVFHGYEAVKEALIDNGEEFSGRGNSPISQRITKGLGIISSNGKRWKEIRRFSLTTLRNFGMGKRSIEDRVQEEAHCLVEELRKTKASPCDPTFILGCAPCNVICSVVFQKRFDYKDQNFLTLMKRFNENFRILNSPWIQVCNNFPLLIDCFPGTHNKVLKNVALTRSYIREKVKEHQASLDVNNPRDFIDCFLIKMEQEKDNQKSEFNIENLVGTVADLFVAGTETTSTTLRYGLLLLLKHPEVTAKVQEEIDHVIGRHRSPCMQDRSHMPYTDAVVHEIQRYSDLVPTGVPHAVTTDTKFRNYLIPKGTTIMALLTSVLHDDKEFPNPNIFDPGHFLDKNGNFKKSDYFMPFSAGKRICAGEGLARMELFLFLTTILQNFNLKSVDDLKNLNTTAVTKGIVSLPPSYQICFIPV
Description: as §1

[5] = target: T4, CYP2C9 (Homo sapiens, UniProt P11712); test: as above; assay type: in vitro ADME; settings: up to 10 μM
T4 construct: human liver microsomes from a pool of 200 individuals; from tissue; host or cells: human liver microsomes, pool of 200 individuals
T4 sequence (P11712 whole entry): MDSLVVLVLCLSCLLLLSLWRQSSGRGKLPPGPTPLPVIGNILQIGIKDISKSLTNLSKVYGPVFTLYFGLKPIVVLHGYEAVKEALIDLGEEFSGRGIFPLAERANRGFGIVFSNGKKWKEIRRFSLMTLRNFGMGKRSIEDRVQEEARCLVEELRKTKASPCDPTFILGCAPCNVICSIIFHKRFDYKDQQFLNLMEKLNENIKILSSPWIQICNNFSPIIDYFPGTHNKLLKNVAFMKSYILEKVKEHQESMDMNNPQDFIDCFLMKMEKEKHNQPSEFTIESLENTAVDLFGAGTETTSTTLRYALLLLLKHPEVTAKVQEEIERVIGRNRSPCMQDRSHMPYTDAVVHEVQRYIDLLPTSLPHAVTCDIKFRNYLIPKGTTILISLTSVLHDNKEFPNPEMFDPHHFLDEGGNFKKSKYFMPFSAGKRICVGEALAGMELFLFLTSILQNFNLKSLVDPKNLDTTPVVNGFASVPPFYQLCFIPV
Description: as §1

[6] = target: T5, CYP2D6 (Homo sapiens, UniProt P10635); test: as above; assay type: in vitro ADME; settings: up to 10 μM
T5 construct: human liver microsomes from a pool of 200 individuals; from tissue; host or cells: human liver microsomes, pool of 200 individuals
T5 sequence (P10635 whole entry): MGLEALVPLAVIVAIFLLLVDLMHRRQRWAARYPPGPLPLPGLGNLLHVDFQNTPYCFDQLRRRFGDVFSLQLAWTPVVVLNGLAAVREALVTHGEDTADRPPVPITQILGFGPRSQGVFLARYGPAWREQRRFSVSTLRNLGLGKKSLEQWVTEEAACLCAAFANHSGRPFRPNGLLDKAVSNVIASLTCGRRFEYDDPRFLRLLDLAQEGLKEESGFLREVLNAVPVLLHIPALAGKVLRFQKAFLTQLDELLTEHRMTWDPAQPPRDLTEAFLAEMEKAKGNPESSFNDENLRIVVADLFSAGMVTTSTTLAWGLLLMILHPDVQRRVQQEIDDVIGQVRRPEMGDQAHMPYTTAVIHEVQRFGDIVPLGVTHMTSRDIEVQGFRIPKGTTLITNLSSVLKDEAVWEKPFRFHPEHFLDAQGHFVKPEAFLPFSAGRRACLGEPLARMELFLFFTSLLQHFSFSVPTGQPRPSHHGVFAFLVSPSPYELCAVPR
Description: as §1

[7] = tested on: CYP3A4/5; test: as above; assay type: in vitro ADME; settings: up to 10 μM
Description: as §1

[8] = tested on: CYP1A2 mRNA; test: CYP induction in cultured human hepatocytes; assay type: in vitro ADME; settings: up to 10 μM
[9] = target: T6, OAT3 (Homo sapiens, UniProt Q8TCC7); test: Transporter inhibition, HEK293 cells; assay type: in vitro ADME
T6 construct: expressed in transfected cells; host or cells: HEK293
T6 sequence (Q8TCC7 1-542): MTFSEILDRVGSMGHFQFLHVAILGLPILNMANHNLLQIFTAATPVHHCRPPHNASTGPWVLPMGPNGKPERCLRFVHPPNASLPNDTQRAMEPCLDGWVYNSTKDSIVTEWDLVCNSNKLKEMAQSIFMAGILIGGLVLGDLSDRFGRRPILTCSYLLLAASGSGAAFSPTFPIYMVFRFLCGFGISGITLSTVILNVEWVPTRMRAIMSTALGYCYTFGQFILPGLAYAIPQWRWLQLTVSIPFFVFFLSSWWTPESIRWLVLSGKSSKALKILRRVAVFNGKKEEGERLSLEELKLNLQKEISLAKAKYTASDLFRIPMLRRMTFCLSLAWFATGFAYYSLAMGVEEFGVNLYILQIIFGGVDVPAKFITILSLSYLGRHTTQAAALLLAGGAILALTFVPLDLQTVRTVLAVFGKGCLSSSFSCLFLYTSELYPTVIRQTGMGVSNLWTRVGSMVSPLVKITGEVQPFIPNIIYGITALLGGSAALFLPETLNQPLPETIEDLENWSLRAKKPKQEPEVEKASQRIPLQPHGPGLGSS

[10] = target: T7, MATE1 (Homo sapiens, UniProt Q96FL8); test: Transporter inhibition, HEK293 cells; assay type: in vitro ADME
T7 construct: expressed in transfected cells; host or cells: HEK293
T7 sequence (Q96FL8 whole entry): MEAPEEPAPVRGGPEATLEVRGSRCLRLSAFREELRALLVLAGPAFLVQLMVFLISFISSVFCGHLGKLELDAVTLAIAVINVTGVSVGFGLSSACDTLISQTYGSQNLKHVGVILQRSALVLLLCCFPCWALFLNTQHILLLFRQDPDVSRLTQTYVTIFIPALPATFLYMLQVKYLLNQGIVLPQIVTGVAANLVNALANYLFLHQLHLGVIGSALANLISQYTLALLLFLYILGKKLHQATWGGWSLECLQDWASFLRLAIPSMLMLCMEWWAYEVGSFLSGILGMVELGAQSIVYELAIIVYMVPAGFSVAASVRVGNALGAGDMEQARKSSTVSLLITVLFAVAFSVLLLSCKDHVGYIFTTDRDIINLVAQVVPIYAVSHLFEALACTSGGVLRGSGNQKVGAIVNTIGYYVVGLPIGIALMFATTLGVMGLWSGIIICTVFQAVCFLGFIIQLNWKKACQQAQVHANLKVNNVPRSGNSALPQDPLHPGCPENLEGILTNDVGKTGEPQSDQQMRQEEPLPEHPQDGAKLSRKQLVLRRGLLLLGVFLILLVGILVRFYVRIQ

[11] = target: T8, MATE2-K (Homo sapiens, UniProt Q86VL8); test: Transporter inhibition, HEK293 cells; assay type: in vitro ADME
T8 construct: expressed in transfected cells; host or cells: HEK293
T8 sequence (Q86VL8 1-566 isoform Q86VL8-3): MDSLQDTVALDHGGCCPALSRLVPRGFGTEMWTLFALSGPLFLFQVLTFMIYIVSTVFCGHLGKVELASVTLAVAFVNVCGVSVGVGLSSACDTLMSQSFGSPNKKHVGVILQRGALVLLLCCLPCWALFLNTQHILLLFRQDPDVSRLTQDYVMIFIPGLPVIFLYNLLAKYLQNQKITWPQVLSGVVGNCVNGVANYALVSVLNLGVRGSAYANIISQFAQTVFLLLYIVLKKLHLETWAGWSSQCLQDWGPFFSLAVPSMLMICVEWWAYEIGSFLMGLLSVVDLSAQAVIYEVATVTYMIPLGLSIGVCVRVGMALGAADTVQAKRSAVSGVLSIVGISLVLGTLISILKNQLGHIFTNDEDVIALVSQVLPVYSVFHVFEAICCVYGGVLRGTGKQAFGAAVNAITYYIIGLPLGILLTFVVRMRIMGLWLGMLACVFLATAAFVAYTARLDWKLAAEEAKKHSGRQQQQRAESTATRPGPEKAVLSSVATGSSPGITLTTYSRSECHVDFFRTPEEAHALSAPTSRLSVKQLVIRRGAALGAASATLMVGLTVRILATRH

[12] = target: T9, BCRP (Homo sapiens, UniProt Q9UNQ0); test: Transporter substrate evaluation, MDCKII-BCRP cells; assay type: in vitro ADME
T9 sequence (Q9UNQ0 1-655): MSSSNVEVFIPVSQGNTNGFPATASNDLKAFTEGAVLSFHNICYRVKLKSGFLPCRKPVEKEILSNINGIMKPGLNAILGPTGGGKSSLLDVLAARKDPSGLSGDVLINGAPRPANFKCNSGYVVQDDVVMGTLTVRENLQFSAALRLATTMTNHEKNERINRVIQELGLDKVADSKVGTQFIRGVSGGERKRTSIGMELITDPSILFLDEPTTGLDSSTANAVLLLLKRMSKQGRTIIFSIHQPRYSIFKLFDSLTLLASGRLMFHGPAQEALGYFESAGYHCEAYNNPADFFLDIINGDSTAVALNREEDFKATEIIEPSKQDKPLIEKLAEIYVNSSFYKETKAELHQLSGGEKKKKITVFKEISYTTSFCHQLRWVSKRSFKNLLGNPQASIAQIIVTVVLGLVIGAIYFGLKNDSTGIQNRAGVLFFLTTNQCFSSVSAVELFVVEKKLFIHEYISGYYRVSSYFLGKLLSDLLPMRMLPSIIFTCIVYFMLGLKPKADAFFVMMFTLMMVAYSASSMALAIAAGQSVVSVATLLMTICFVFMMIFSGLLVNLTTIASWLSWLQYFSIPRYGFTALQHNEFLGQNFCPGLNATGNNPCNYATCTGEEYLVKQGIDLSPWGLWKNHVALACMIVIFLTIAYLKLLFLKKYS

[13] = target: T6, OAT3; test: Transporter substrate evaluation, HEK293 cells; assay type: in vitro ADME; settings: 1 and 10 μM
[14] = Phase 1 single dosing study: safety and tolerability
[15] = HEK293 cells, [14C]-metformin (10 μM), 1 and 10 μM tested

Chain of CYP1A2 (P05177 whole entry): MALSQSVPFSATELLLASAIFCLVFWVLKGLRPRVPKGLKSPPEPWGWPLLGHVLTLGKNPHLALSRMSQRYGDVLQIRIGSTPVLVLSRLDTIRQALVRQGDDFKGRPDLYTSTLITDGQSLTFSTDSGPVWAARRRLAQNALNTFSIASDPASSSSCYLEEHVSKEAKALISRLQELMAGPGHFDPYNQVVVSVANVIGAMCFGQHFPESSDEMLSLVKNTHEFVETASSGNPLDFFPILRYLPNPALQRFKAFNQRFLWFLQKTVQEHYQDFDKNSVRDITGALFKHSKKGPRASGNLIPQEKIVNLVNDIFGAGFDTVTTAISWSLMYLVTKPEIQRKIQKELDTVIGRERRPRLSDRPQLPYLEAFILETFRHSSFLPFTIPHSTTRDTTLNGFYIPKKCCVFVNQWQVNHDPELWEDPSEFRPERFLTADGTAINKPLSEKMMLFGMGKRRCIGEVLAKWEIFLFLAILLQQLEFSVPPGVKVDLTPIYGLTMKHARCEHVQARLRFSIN

O=C(O)C[C@H]1CCc2c1[nH]c1ccc(OCc3ccc(C4CCCC4)c(C(F)(F)F)c3)cc21 [Compound 1, (R)-2-(7-(4-cyclopentyl-3-(trifluoromethyl)benzyloxy)-1,2,3,4-tetrahydrocyclopenta[b]indol-3-yl)acetic acid]
Direct inhibition of CYP1A2 activity [1]: Little or no direct inhibition | Direct inhibition of CYP2B6 activity [2]: Little or no direct inhibition | Direct inhibition of CYP2C19 activity [3]: Little or no direct inhibition | inhibition at 1 µM [4]: 22% | inhibition at 10 µM [4]: ~100% | Direct inhibition of CYP2C9 activity [5]: Little or no direct inhibition | Direct inhibition of CYP2D6 activity [6]: Little or no direct inhibition | Direct inhibition of CYP3A4/5 activity [7]: Little or no direct inhibition | Induction potential on CYP1A2 mRNA [8]: no induction potential; also recorded: not a potential inducer | Reduction of uptake rate of estrone-3-sulfate into OAT3-expressing cells (inhibition) ([9]; 1 and 10 μM): less than 50% | pIC50 ([9]; HEK293 cells, [3H]-estrone-3-sulfate (50 nM), 1 and 10 μM tested): < 5.00 | pIC50 [10, 15]: < 5.00 | Inhibition of MATE1 ([10]; up to 10 μM): less than 50% | pIC50 [11, 15]: < 5.00 | Inhibition of MATE2-K ([11]; up to 10 μM): less than 50% | Efflux ratio of Compound 1 across MDCKII-BCRP cells ([12]; 1 μM, absence and presence of Ko143 (1 μM)): less than two | efflux ratio at 10 μM ([12]; human, 10 μM): 7.36 | recovery ([12]; human, MDCKII-BCRP assay): 27 to 48% | Potential substrate of OAT3 ([13]; HEK293 cells): not a substrate of OAT3 and not a substrate and No | Uptake ratio into OAT3-expressing cells ([13]; absence and presence of probenecid (100 μM)): below two | Deaths or serious adverse events ([14]; single doses 0.1 to 5 mg): no deaths or serious adverse events | Maximum tolerated dose ([14]; single dosing, L-arginine salt): 3 mg
